The results in this text go back to patent US8921368B2, “Pyrrolopyridazine JAK3 inhibitors and their use for the treatment of inflammatory and autoimmune diseases” (Bristol-Myers Squibb Company, priority 2011, dated 2014).

In general, IC50 refers to the concentration at which inhibition is half-maximal.

One assay has as its target JAK3 (Homo sapiens (Human), UniProt P52333). In words: JAK3 Kinase Assay (Caliper / Filter protocols). Format: biochemical. To be noted: JAK3 kinase inhibition; ATP 8 μM; read-out: LLE_JAK3_FB (IC50). As for the experimental part: JAK3 Kinase Assay Protocol (Caliper)
The assay reactions were performed in U-bottom 384-well plates. […] The reaction was initiated by the combination of GST-JAK3 enzyme with substrates and test compounds. The reactions were incubated at room temperature for 3 hours and terminated by adding 60 μl of 35 mM EDTA to each sample. […] Compounds were dissolved at 10 mM in dimethylsulfoxide (DMSO) and evaluated at eleven concentrations. IC50 values were derived by non-linear regression analysis.
JAK3 Kinase Assay Protocol (Filter)
Kinase reactions consisted of 5 ng of JAK3 enzyme, 30 uM CSKtide substrate, 0.2 μCi ^33P γ-ATP, 8 μM ATP in 30 μl kinase buffer (50 mM Hepes, pH 8.0, 10 mM MgCl2, 1 mM EGTA, 2 mM DTT). Reactions were incubated for 30 minutes at room temperature and stopped by the addition of cold trichloroacetic acid (TCA) to a final concentration of 15%. TCA precipitates were collected onto 384 well phosphocellulose filters (Millipore) using a Platemate to transfer the reaction mixture, washed on an EMBLA plate washer and the filters were quantitated using a TopCount 384-well liquid scintillation counter. […] Compounds were dissolved at 10 mM in dimethylsulfoxide (DMSO) and evaluated at six concentrations, each in triplicate. The final concentration of DMSO in the assay equaled 2%. IC50 values were derived by non-linear regression analysis.

In a further assay the target is JAK1 (Homo sapiens (Human), UniProt P23458). In words: JAK1 Kinase Assay Protocol. The format is biochemical. The settings on record: GST-JAK1; ATP 100 μM; Caliper LabChip; read-out: LLE_JAK1 (IC50). As for the experimental part: JAK1 Kinase Assay Protocol
Chain of JAK1 (P23458 whole entry): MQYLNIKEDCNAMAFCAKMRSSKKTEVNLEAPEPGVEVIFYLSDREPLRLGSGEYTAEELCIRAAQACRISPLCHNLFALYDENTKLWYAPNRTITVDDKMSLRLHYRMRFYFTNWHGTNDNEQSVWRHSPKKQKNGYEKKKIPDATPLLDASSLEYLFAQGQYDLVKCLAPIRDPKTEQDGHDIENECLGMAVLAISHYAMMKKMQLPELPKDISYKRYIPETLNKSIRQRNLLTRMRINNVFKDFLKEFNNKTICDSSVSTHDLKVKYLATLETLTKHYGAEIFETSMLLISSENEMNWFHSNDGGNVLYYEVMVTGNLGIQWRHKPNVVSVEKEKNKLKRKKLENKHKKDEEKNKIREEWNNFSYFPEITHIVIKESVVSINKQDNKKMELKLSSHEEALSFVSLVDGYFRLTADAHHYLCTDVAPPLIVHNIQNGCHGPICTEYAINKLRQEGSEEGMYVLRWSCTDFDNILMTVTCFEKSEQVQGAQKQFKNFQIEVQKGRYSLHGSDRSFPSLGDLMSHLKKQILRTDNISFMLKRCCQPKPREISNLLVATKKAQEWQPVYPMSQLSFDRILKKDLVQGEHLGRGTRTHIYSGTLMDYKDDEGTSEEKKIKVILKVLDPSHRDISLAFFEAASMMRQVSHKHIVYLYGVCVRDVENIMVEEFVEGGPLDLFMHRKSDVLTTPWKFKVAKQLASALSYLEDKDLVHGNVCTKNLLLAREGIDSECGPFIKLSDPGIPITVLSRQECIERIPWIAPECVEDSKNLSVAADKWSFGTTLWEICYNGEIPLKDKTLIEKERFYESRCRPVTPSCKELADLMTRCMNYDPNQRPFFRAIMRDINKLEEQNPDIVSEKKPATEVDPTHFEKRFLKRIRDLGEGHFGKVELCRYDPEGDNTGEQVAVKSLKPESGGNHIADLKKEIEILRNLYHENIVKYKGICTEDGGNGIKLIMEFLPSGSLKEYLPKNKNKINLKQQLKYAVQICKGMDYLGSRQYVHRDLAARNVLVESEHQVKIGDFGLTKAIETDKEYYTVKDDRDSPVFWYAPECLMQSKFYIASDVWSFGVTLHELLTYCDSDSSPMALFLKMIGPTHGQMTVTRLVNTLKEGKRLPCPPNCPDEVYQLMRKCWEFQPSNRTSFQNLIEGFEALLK
The assay reactions were performed in U-bottom 384-well plates. The final assay volume was 30 μl prepared from 15 μl additions of enzyme and substrates (fluoresceinated peptide and ATP) and test compounds in assay buffer (20 mM HEPES pH 7.4, 10 mM MgCl2, 25 mM beta-glycerol phosphate, 0.015% Brij35 and 4 mM DTT). The reaction was initiated by the combination of GST-JAK1 enzyme with substrates and test compounds. The reactions were incubated at room temperature for 3 hours and terminated by adding 60 μl of 35 mM EDTA to each sample. […] The final concentration of reagents in the assays was: ATP, 100 μM; fluoresceinated peptide, 1.5 μM; GST-JAK1, 12.5 nM; and DMSO, 1.6%. […] Compounds were dissolved at 10 mM in dimethylsulfoxide (DMSO) and evaluated at eleven concentrations. IC50 values were derived by non-linear regression analysis.

Chain of JAK3 (P52333 whole entry): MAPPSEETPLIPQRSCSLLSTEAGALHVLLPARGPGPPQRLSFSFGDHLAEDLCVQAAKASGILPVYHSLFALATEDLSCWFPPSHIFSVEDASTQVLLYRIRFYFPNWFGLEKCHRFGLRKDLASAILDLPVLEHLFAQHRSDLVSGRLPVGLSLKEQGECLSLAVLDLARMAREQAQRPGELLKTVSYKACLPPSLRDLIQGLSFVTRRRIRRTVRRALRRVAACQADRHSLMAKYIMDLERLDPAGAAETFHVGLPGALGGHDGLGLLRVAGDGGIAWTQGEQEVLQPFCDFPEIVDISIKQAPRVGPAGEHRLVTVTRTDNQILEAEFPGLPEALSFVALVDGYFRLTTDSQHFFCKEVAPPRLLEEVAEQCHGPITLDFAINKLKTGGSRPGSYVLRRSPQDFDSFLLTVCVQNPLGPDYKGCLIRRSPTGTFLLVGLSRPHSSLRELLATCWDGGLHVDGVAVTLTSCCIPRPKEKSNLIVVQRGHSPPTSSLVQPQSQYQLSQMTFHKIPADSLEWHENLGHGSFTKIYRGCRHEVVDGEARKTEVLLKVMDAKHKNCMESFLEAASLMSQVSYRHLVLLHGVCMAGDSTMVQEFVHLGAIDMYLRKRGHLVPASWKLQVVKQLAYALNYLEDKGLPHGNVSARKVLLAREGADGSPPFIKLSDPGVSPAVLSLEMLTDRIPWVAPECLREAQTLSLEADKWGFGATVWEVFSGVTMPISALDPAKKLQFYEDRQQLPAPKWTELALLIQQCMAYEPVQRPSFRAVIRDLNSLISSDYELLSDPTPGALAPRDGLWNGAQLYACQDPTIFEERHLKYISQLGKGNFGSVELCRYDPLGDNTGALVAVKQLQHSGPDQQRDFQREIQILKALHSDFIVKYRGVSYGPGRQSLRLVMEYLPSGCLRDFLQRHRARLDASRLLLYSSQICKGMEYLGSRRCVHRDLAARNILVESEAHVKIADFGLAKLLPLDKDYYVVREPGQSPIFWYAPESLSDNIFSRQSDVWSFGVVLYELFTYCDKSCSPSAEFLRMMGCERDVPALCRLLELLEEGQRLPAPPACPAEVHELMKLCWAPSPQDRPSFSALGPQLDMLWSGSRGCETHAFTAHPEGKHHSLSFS

As for `CC(=O)Nc1ccccc1-c1cc2c(N[C@@H]3CC[C@](C)(N)C3(C)C)c(C(N)=O)cnn2c1` [Example 257, 6-(2-acetamidophenyl)-4-(((1R,3S)-3-amino-2,2,3-trimethylcyclopentyl)amino)pyrrolo[1,2-b]pyridazine-3-carboxamide], the IC50 was found to be 36.9 nM at JAK3 and 30 nM on JAK1.

Consider `CN(C)C(=O)c1ccc(-c2cc3c(N[C@@H]4CC[C@](C)(N)C4(C)C)c(C(N)=O)cnn3c2)cc1` [Example 266, 4-(((1R,3S)-3-amino-2,2,3-trimethylcyclopentyl)amino)-6-(4-(dimethylcarbamoyl)phenyl)pyrrolo[1,2-b]pyridazine-3-carboxamide], for which the values for the IC50 on JAK3 and at JAK1 were 0.8 nM and 0.6 nM, respectively.

With `CC1(C)[C@H](Nc2c(C(N)=O)cnn3cc(-c4ccc(CO)cc4)cc23)CC[C@]1(C)N` [Example 271, 4-(((1R,3S)-3-amino-2,2,3-trimethylcyclopentyl)amino)-6-(4-(hydroxymethyl)phenyl) pyrrolo[1,2-b]pyridazine-3-carboxamide], the IC50 at JAK3 turned out to be 0.3 nM; at JAK1, 0.7 nM.

As to `CC1(C)[C@H](Nc2c(C(N)=O)cnn3cc(-c4cccc5ncccc45)cc23)CC[C@]1(C)N` [Example 272, 4-(((1R,3S)-3-amino-2,2,3-trimethylcyclopentyl)amino)-6-(5-quinolinyl)pyrrolo[1,2-b]pyridazine-3-carboxamide], the 50% inhibitory concentration (IC50) on JAK3 is 13.8 nM; at JAK1, 5.4 nM.

With `CC1(C)[C@H](Nc2c(C(N)=O)cnn3cc(-c4cncc(C(=O)O)c4)cc23)CC[C@]1(C)N` [Example 276, 5-(4-(((1R,3S)-3-amino-2,2,3-trimethylcyclopentyl)amino)-3-carbamoylpyrrolo[1,2-b]pyridazin-6-yl)nicotinic acid], the IC50 was found to be 15 nM on JAK3 and 35.2 nM at JAK1.

In the case of `COc1ncc(-c2cc3c(N[C@@H]4CC[C@](C)(N)C4(C)C)c(C(N)=O)cnn3c2)cn1` [Example 278, 4-(((1R,3S)-3-amino-2,2,3-trimethylcyclopentyl)amino)-6-(2-methoxy-5-pyrimidinyl)pyrrolo[1,2-b]pyridazine-3-carboxamide], the figures for the IC50 on JAK3 and on JAK1 were 8.4 nM and 25.1 nM, respectively.

`COc1cncc(-c2cc3c(N[C@@H]4CC[C@](C)(N)C4(C)C)c(C(N)=O)cnn3c2)c1` [Example 286, 4-(((1R,3S)-3-amino-2,2,3-trimethylcyclopentyl)amino)-6-(5-methoxy-3-pyridinyl)pyrrolo[1,2-b]pyridazine-3-carboxamide]: the concentration for half-maximal inhibition (IC50) on JAK3 was found to be 5.5 nM; at JAK1, 4.1 nM.

With `CC1(C)[C@H](Nc2c(C(N)=O)cnn3cc(-c4ccccc4)cc23)CC[C@@]1(C)O` [Example 293, 4-(((1R,3R)-3-hydroxy-2,2,3-trimethylcyclopentyl)amino)-6-phenylpyrrolo[1,2-b]pyridazine-3-carboxamide], the results for the IC50 at JAK3 and on JAK1 were 0.2 nM and 0.1 nM, respectively.

As for `NC(=O)c1cnn2cc(-c3ccc(F)cc3)cc2c1NC12CC3CC(O)(CC(O)(C3)C1)C2` [Example 298, 4-((3,5-dihydroxyadamantan-1-yl)amino)-6-(4-fluorophenyl)pyrrolo [1,2-b]pyridazine-3-carboxamide], the IC50 turned out to be 4.7 nM on JAK3 and 2.1 nM on JAK1.

For `NC(=O)c1cnn2cc(-c3ccc4scnc4c3)cc2c1NC12CC3CC(O)(CC(O)(C3)C1)C2` [Example 299, 6-(1,3-benzothiazol-5-yl)-4-((3,5-dihydroxyadamantan-1-yl)amino)pyrrolo [1,2-b]pyridazine-3-carboxamide], the results for the IC50 at JAK3 and on JAK1 were 7.3 nM and 4.3 nM, respectively.

As for `CC1(C)CCC[C@H]1Nc1c(C(N)=O)cnn2cc(-c3ccccc3)cc12` [Example 304, 4-(((1R)-2,2-dimethylcyclopentyl)amino)-6-phenylpyrrolo[1,2-b] pyridazine-3-carboxamide], the IC50 on JAK3 was found to be 0.5 nM; at JAK1 it was 2.9 nM.

`CC1(C)[C@H](Nc2c(C(N)=O)cnn3cc(N4CCOCC4=O)cc23)CC[C@]1(C)N` [Example 312, 4-(((1R,3S)-3-amino-2,2,3-trimethylcyclopentyl)amino)-6-(3-oxo-4-morpholinyl)pyrrolo[1,2-b]pyridazine-3-carboxamide]: the IC50 at JAK3 was 44.2 nM; at JAK1, 69.4 nM.

As for `C[C@]1(O)CC[C@@H](Nc2c(C(N)=O)cnn3cc(-c4cncnc4N)cc23)CC1` [Example 316, 6-(4-amino-5-pyrimidinyl)-4-((cis-4-hydroxy-4-methylcyclohexyl)amino)pyrrolo[1,2-b]pyridazine-3-carboxamide], the IC50 was 11 nM at JAK3 and 37.3 nM at JAK1.

With `C[C@]1(F)CCC[C@H]1Nc1c(C(N)=O)cnn2cc(N3CCOC3=O)cc12` [Example 317], the IC50 was 6.8 nM on JAK3 and 13.6 nM at JAK1.

For `CC1(C)[C@H](Nc2c(C(N)=O)cnn3cc(N4CCCC4=O)cc23)CC[C@]1(C)N` [Example 328], the figures for the IC50 at JAK3 and at JAK1 were 1.7 nM and 20.2 nM, respectively.

`CC1(C)[C@H](Nc2c(C(N)=O)cnn3cc(N4CCC4=O)cc23)CC[C@]1(C)N` [Example 332]: the IC50 at JAK3 is 8.8 nM; on JAK1 it was 75.7 nM.

With `COc1ccc(-c2cc3c(N[C@@H]4CC[C@](C)(NS(C)(=O)=O)C4(C)C)c(C(N)=O)cnn3c2)cn1` [Example 336, 6-(6-methoxy-3-pyridinyl)-4-(((1R,3S)-2,2,3-trimethyl-3-((methylsulfonyl)amino)cyclopentyl)amino)pyrrolo[1,2-b]pyridazine-3-carboxamide], the IC50 at JAK3 turned out to be 1.7 nM; at JAK1 it was 4.3 nM.

Regarding `CC1(C)[C@H](Nc2c(C(N)=O)cnn3cc(-c4ccccc4)cc23)CC[C@]1(C)C(N)=O` [Example 337, 4-((1R,3S)-3-carbamoyl-2,2,3-trimethylcyclopentylamino)-6-phenylpyrrolo[1,2-b]pyridazine-3-carboxamide], the IC50 was 0.4 nM at JAK3 and 1.4 nM on JAK1.

Regarding `COc1ccc(-c2cc3c(N[C@@H]4CC[C@](C)(C(N)=O)C4(C)C)c(C(N)=O)cnn3c2)cn1` [Example 338, 4-((1R,3S)-3-carbamoyl-2,2,3-trimethylcyclopentylamino)-6-(6-methoxypyridin-3-yl)pyrrolo[1,2-b]pyridazine-3-carboxamide], the IC50 on JAK3 is 0.3 nM; on JAK1 it was 1.2 nM.

As for `CC1(C)[C@H](Nc2c(C(N)=O)cnn3cc(-c4ccc(F)nc4)cc23)CC[C@]1(C)C(N)=O` [Example 339, 4-(((1R,3S)-3-carbamoyl-2,2,3-trimethylcyclopentyl)amino)-6-(6-fluoropyridin-3-yl)pyrrolo[1,2-b]pyridazine-3-carboxamide], the IC50 was found to be 1.9 nM at JAK3 and 2.2 nM on JAK1.
